Measured values from PubChem BioAssay (NCI).
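Where inhibition never reached the appropriate level, the endpoint shown equals the highest concentration tested. Otherwise, values were interpolated linearly from a five-concentration, 48-hour dose response in 96-well plates. Here, GI50 denotes the concentration required for 50% inhibition of growth. At the TGI there is no net growth.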

Legend:
Assay in all cases: NCI-60 cell line screen, 48 h
NCI/ADR-RES ovarian = system: NCI/ADR-RES ovarian
NCI-H522 lung = system: NCI-H522 lung
OVCAR-4 ovarian = system: OVCAR-4 ovarian
A549 NSCLC = system: A549 NSCLC
SN12C renal = system: SN12C renal
NCI-H226 lung = system: NCI-H226 lung
KM12 colon = system: KM12 colon
PC-3 prostate = system: PC-3 prostate
SF-295 CNS = system: SF-295 CNS
DU-145 prostate = system: DU-145 prostate
RPMI-8226 leukemia = system: RPMI-8226 leukemia
SK-MEL-28 melanoma = system: SK-MEL-28 melanoma
SK-MEL-5 melanoma = system: SK-MEL-5 melanoma
HL-60(TB) leukemia = system: HL-60(TB) leukemia
SK-OV-3 ovarian = system: SK-OV-3 ovarian
A498 renal = system: A498 renal
ACHN renal = system: ACHN renal
HCT-15 colon = system: HCT-15 colon
HT29 colon = system: HT29 colon
SF-268 CNS = system: SF-268 CNS
IGROV1 ovarian = system: IGROV1 ovarian
U251 CNS = system: U251 CNS
HOP-92 NSCLC = system: HOP-92 NSCLC
K-562 leukemia = system: K-562 leukemia
UACC-62 melanoma = system: UACC-62 melanoma
SR leukemia = system: SR leukemia
RXF 393 renal = system: RXF 393 renal
EKVX NSCLC = system: EKVX NSCLC
COLO 205 colon = system: COLO 205 colon

Cn1ncc(NC(=O)c2nc(-c3c(F)cccc3F)sc2N)c1N1CC[C@@H](N)[C@H](F)CC1
GI50 (NCI/ADR-RES ovarian): 20.5 µM | TGI (NCI/ADR-RES ovarian): > 89.8 µM | GI50 (NCI-H522 lung): 2670 nM | TGI (NCI-H522 lung): 14.9 µM | GI50 (OVCAR-4 ovarian): 4.17 µM | TGI (OVCAR-4 ovarian): 44.3 µM | GI50 (A549 NSCLC): 4.83 µM | TGI (A549 NSCLC): 25.6 µM | GI50 (SN12C renal): 3.69 µM | TGI (SN12C renal): 43.3 µM | GI50 (NCI-H226 lung): 1740 nM | TGI (NCI-H226 lung): 27 µM | GI50 (KM12 colon): 12.4 µM | TGI (KM12 colon): 54.1 µM | GI50 (PC-3 prostate): 3.6 µM | TGI (PC-3 prostate): 32 µM | GI50 (SF-295 CNS): 8.75 µM | TGI (SF-295 CNS): 24 µM | GI50 (DU-145 prostate): 5.19 µM | TGI (DU-145 prostate): 42.6 µM | GI50 (RPMI-8226 leukemia): 2540 nM | TGI (RPMI-8226 leukemia): 29.3 µM | GI50 (SK-MEL-28 melanoma): 10.4 µM | TGI (SK-MEL-28 melanoma): 25.6 µM | GI50 (SK-MEL-5 melanoma): 4.77 µM | TGI (SK-MEL-5 melanoma): 17.8 µM | GI50 (HL-60(TB) leukemia): 4.22 µM | TGI (HL-60(TB) leukemia): 17.3 µM | GI50 (SK-OV-3 ovarian): 1420 nM | TGI (SK-OV-3 ovarian): 6 µM | GI50 (A498 renal): 1170 nM | TGI (A498 renal): 7.55 µM | GI50 (ACHN renal): 2670 nM | TGI (ACHN renal): 16.7 µM | GI50 (HCT-15 colon): 3.86 µM | TGI (HCT-15 colon): 28.7 µM | GI50 (HT29 colon): 5.58 µM | TGI (HT29 colon): 27.5 µM | GI50 (SF-268 CNS): 3.27 µM | TGI (SF-268 CNS): 32.6 µM | GI50 (IGROV1 ovarian): 2880 nM | TGI (IGROV1 ovarian): 19.8 µM | GI50 (U251 CNS): 8.54 µM | TGI (U251 CNS): 23.9 µM | GI50 (HOP-92 NSCLC): 4.12 µM | TGI (HOP-92 NSCLC): 31.3 µM | GI50 (K-562 leukemia): 3.45 µM | TGI (K-562 leukemia): 28 µM | GI50 (UACC-62 melanoma): 5.33 µM | TGI (UACC-62 melanoma): 25.2 µM | GI50 (SR leukemia): 2370 nM | TGI (SR leukemia): 25 µM | GI50 (RXF 393 renal): 2980 nM | TGI (RXF 393 renal): 15.3 µM | GI50 (EKVX NSCLC): 2950 nM | TGI (EKVX NSCLC): 50.7 µM | GI50 (COLO 205 colon): 3.33 µM
